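Tested at 5 concentrations; 48 h exposure; 96-well plates; endpoints linearly interpolated, else capped at highest concentration. Here, GI50 denotes the concentration required for 50% inhibition of growth. TGI is the concentration that stops growth completely.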
Assays:
Test in all cases: NCI tumour cell line growth inhibition, 48 h
[1] = system: KM12 colon
[2] = system: HL-60(TB) leukemia
[3] = system: HOP-92 NSCLC
[4] = system: OVCAR-3 ovarian
[5] = system: UO-31 renal
[6] = system: LOX IMVI melanoma
[7] = system: SK-MEL-5 melanoma
[8] = system: K-562 leukemia
[9] = system: UACC-62 melanoma
[10] = system: HT29 colon
[11] = system: OVCAR-4 ovarian
[12] = system: SN12C renal
[13] = system: COLO 205 colon

Compound | TGI [1] [µM] | GI50 [2] [µM] | TGI [2] [µM] | GI50 [3] [µM] | TGI [3] [µM] | TGI [4] [µM] | TGI [5] [µM] | TGI [6] [µM] | TGI [7] [µM] | TGI [8] [µM] | TGI [9] [µM] | TGI [10] [µM] | TGI [11] [µM] | TGI [12] [µM] | TGI [13] [µM] | GI50 [6] [µM] | GI50 [8] [µM] | GI50 [9] [µM] | GI50 [11] [µM] | GI50 [13] [µM]
N#C[C@H](OC1OC(COC2OC(CO)C(O)C(O)C2O)C(O)C(O)C1O)c1ccccc1 (stereo not given in full) | > 250 | > 141 | > 141 | > 250 | > 250 | > 250 | > 250 | > 250 | > 250 | > 250 | > 250 | > 250 | > 250 | > 250 | > 250 |  |  |  |  | 
O=C(Nc1nc2ccc([N+](=O)[O-])cc2s1)C(=O)C(C(=O)c1ccccc1F)C1OC(=O)c2ccccc21 (stereo not given) | > 100 |  | 51.2 |  | > 100 |  | > 100 | > 100 | > 100 | > 100 | > 100 | > 100 | > 100 | > 100 | 62.4 |  |  |  |  | 
CCCNC(=O)C(C)C1CCC2(C)C=CC(=O)C(C)=C2C1O (stereo not given) | > 100 |  | > 100 |  | > 100 | > 100 | > 100 | > 100 | > 100 | > 100 | > 100 | > 100 | > 100 | > 100 | > 100 |  |  |  |  | 
CCCc1c(-c2ccccc2)[nH]c2ccccc2c1=O | 88.2 |  | > 100 |  | > 100 | > 100 | 69.1 | 43.5 |  | > 100 | > 100 | 50.3 | > 100 | > 100 | > 100 |  |  |  |  | 
CCN(CC)c1ccc2cc(C(=O)Nc3ccc4[nH]c(C(=O)N5C[C@@H](CCl)c6c5cc(OC(=O)Nc5ccccc5)c5[nH]cc(C)c65)cc4c3)oc2c1 | > 1000 | 125 | 624 |  | > 1000 | > 1000 | 982 |  | > 1000 | > 1000 |  | > 1000 | > 1000 | > 1000 | > 1000 | 295 | 278 | 44.5 | 428 | > 1000
O=C1C(Cl)=C(Nc2ccc(S(=O)(=O)O)cc2)C(=O)c2ccccc21 | 56.3 |  | > 100 |  | 34.6 | 43.4 | 29.2 | 80 | 28 | 94.2 | > 100 | > 100 | > 100 |  | 75.6 |  |  |  |  | 
O=c1ssc(=Nc2ccccc2)n1-c1ccccc1 | > 100 |  | 96.2 |  | 98.5 | 53.1 | 31.7 | 50.6 | > 100 | 70.2 | > 100 | > 100 | 33.2 | 41.1 | 66.4 |  |  |  |  | 
C=CC1(NC(=O)c2ccccc2)CCC(C(C)(C)C)CC1 (stereo not given) | > 100 |  | 33 |  |  | 86.7 | 77.7 | 39.3 | 43.9 | > 100 | 97.8 | 55 | > 100 | > 61.4 | 43.2 |  |  |  |  | 
Nc1ccn(C2C=C(CO)C(O)C2O)c(=O)c1 (stereo not given) | > 625 |  | > 625 |  | > 625 | > 625 | > 625 | > 625 | > 625 |  | > 625 | > 625 | > 625 | > 625 | > 625 |  |  |  |  | 
COc1nc(=O)n(COC(CO)CN2C(=O)c3ccccc3C2=O)cc1Cc1cccc(OCc2ccccc2)c1 (stereo not given) | 91.3 |  | 41.8 |  | 45.2 | 58.9 | 52.4 | 41.5 | 30.5 | 60.1 | 28.5 | > 100 | 57.8 | 58.5 | 37.4 |  |  |  |  | 
CN(C)CCCN1c2ccccc2Sc2ccc3ccccc3c21 | 19.3 |  | 0.0372 |  | 21 | 21.7 | 17 | 19.8 | 8.21 | 5.56 | 9.62 | 12.5 | 17.8 | 22.9 | 10 |  |  |  |  | 
OCCNCCN1CCN(CCCN2c3ccccc3Sc3ccc(C(F)(F)F)cc32)CC1 | 45.1 |  | > 100 |  |  | 40.3 |  | 28.5 | > 100 |  | 41.2 | 28.3 | 48.8 | 33.9 | 32.4 |  |  |  |  | 
O=C(O)c1cc2c(ncc3c(=O)n(-c4ccccc4)[nH]c32)s1 | > 100 |  |  |  | > 100 | > 100 | > 100 | > 100 |  | > 100 | > 100 | > 100 | > 100 | > 100 | > 100 |  |  |  |  | 
CC(=O)Oc1cc2c(cc1OC(C)=O)OCC(c1ccccc1)C2 (stereo not given) | 55.3 |  | 9.01 |  | 25.3 | 58.9 | 58.4 | 46 | 39 | 80.1 | 53.3 | 98.3 | 55.4 | 56.6 | 47 |  |  |  |  | 
Cc1ccc(C2OC(COCc3ccc(Cl)cc3)C(OCc3ccc(Cl)cc3)C2O)cc1 (stereo not given) | 71.2 |  |  |  | 15.6 | 27.5 | 23.8 |  | 25.9 | > 100 | 18.7 | 26.2 | 40.9 | 13.1 | > 100 |  |  |  |  | 
O=C1OC2(CC1C1(O)C3CC4CC(C3)CC1C4)C1CC3CC(C1)CC2C3 (stereo not given) | > 100 |  | > 100 |  |  | > 100 | > 100 | > 100 | > 100 | > 100 | > 100 | > 100 | 76.6 | > 100 |  |  |  |  |  | 
